Experimental data as given in the NIST ThermoML archive (doi:10.1021/je400781b).
Numbers after ± are expanded uncertainties.

Assay: xn = mol fraction of the nth substance listed
Conditions: 101 kPa, Liquid; for speed of sound: Frequency=2.75 MHz, Pulse-echo method; for mass density: Vibrating tube method

CCCC[n+]1ccn(C)c1.O=S(=O)([N-]S(=O)(=O)C(F)(F)F)C(F)(F)F + CC#N
Conditions | mass density, 293.15 K [kg/m3] | mass density, 298.15 K [kg/m3] | mass density, 303.15 K [kg/m3] | mass density, 308.15 K [kg/m3] | mass density, 313.15 K [kg/m3] | speed of sound, 293.15 K [m/s] | speed of sound, 298.15 K [m/s] | speed of sound, 303.15 K [m/s] | speed of sound, 308.15 K [m/s] | speed of sound, 313.15 K [m/s]
x1 = 0.0506 | 936.84 ± 0.95 | 931.39 ± 0.94 | 925.93 ± 0.94 | 920.45 ± 0.94 | 914.95 ± 0.96 | 1259.9 ± 1.2 | 1241.7 ± 1.2 | 1223.7 ± 1.2 | 1205.7 ± 1.2 | 1187.9 ± 1.2
x1 = 0.1242 | 1078.45 ± 0.63 | 1073.07 ± 0.63 | 1067.67 ± 0.63 | 1062.27 ± 0.63 | 1056.87 ± 0.64 | 1241 ± 1.2 | 1224.8 ± 1.2 | 1208.7 ± 1.2 | 1192.7 ± 1.2 | 1176.8 ± 1.2
x1 = 0.2041 | 1175.48 ± 0.39 | 1170.19 ± 0.38 | 1164.9 ± 0.38 | 1159.61 ± 0.38 | 1154.32 ± 0.4 | 1235 ± 1.2 | 1220.1 ± 1.2 | 1205.3 ± 1.2 | 1190.6 ± 1.2 | 1176 ± 1.2
x1 = 0.341 | 1275.66 ± 0.31 | 1270.52 ± 0.31 | 1265.38 ± 0.31 | 1260.25 ± 0.31 | 1255.12 ± 0.32 | 1234 ± 1.3 | 1220.4 ± 1.2 | 1206.9 ± 1.2 | 1193.5 ± 1.2 | 1180.3 ± 1.2
x1 = 0.5016 | 1343.88 ± 0.33 | 1338.86 ± 0.32 | 1333.85 ± 0.32 | 1328.85 ± 0.32 | 1323.86 ± 0.32 | 1235.1 ± 1.3 | 1222.4 ± 1.3 | 1209.9 ± 1.3 | 1197.5 ± 1.3 | 1185.2 ± 1.3
x1 = 0.6525 | 1384.46 ± 0.39 | 1379.53 ± 0.39 | 1374.6 ± 0.38 | 1369.69 ± 0.38 | 1364.79 ± 0.38 | 1236.2 ± 1.4 | 1224.1 ± 1.4 | 1212.1 ± 1.4 | 1200.3 ± 1.4 | 1188.6 ± 1.4
x1 = 0.7861 | 1410.16 ± 0.47 | 1405.28 ± 0.46 | 1400.42 ± 0.46 | 1395.58 ± 0.45 | 1390.74 ± 0.45 | 1237.1 ± 1.4 | 1225.4 ± 1.4 | 1213.8 ± 1.4 | 1202.4 ± 1.4 | 1191 ± 1.4
x1 = 0.9575 | 1434.22 ± 0.58 | 1429.41 ± 0.58 | 1424.61 ± 0.57 | 1419.83 ± 0.57 | 1415.06 ± 0.56 | 1237.9 ± 1.5 | 1226.6 ± 1.5 | 1215.4 ± 1.5 | 1204.3 ± 1.5 | 1193.4 ± 1.5
x1 = 1 | 1439.23 ± 0.61 | 1434.44 ± 0.61 | 1429.65 ± 0.6 | 1424.88 ± 0.6 | 1420.12 ± 0.59 | 1237.9 ± 1.5 | 1226.7 ± 1.5 | 1215.6 ± 1.5 | 1204.6 ± 1.5 | 1193.7 ± 1.5

CCCC[n+]1ccn(C)c1.O=S(=O)([N-]S(=O)(=O)C(F)(F)F)C(F)(F)F + C1CCOC1
Conditions | mass density, 293.15 K [kg/m3] | mass density, 298.15 K [kg/m3] | mass density, 303.15 K [kg/m3] | mass density, 308.15 K [kg/m3] | speed of sound, 293.15 K [m/s] | speed of sound, 298.15 K [m/s] | speed of sound, 303.15 K [m/s] | speed of sound, 308.15 K [m/s]
x1 = 0.0507 | 981.03 ± 0.63 | 975.68 ± 0.62 | 970.55 ± 0.62 | 965.26 ± 0.63 | 1276.2 ± 1.2 | 1254.6 ± 1.2 | 1233.2 ± 1.2 | 1212 ± 1.2
x1 = 0.124 | 1080.62 ± 0.49 | 1075.39 ± 0.49 | 1070.15 ± 0.49 | 1064.96 ± 0.49 | 1257.3 ± 1.2 | 1238.5 ± 1.2 | 1219.9 ± 1.2 | 1201.5 ± 1.2
x1 = 0.1963 | 1153.02 ± 0.34 | 1147.88 ± 0.33 | 1142.73 ± 0.33 | 1137.6 ± 0.34 | 1246.9 ± 1.2 | 1230 ± 1.2 | 1213.2 ± 1.2 | 1196.6 ± 1.2
x1 = 0.3526 | 1258.69 ± 0.3 | 1253.67 ± 0.3 | 1248.66 ± 0.3 | 1243.66 ± 0.3 | 1236.8 ± 1.2 | 1222.4 ± 1.2 | 1208 ± 1.2 | 1193.8 ± 1.2
x1 = 0.4962 | 1321.98 ± 0.3 | 1317.04 ± 0.3 | 1312.1 ± 0.3 | 1307.18 ± 0.3 | 1234.1 ± 1.3 | 1220.9 ± 1.3 | 1207.8 ± 1.3 | 1194.9 ± 1.3
x1 = 0.6378 | 1366.6 ± 0.36 | 1361.72 ± 0.36 | 1356.84 ± 0.35 | 1351.97 ± 0.35 | 1233.5 ± 1.3 | 1221 ± 1.3 | 1208.7 ± 1.3 | 1196.5 ± 1.3
x1 = 0.8047 | 1405.56 ± 0.46 | 1400.72 ± 0.46 | 1395.89 ± 0.46 | 1391.07 ± 0.45 | 1235.6 ± 1.4 | 1223.8 ± 1.4 | 1212.2 ± 1.4 | 1200.7 ± 1.4
x1 = 0.9143 | 1425.59 ± 0.54 | 1420.79 ± 0.54 | 1415.99 ± 0.54 | 1411.2 ± 0.53 | 1236.9 ± 1.5 | 1225.4 ± 1.5 | 1214.1 ± 1.5 | 1203 ± 1.5
x1 = 1 | 1439.23 ± 0.61 | 1434.44 ± 0.61 | 1429.65 ± 0.6 | 1424.88 ± 0.6 | 1237.9 ± 1.5 | 1226.7 ± 1.5 | 1215.6 ± 1.5 | 1204.6 ± 1.5
